According to US20220175682A1, “Siremadlin Succinate” (Novartis AG, priority 2019, published 2022):

What was measured:
[1] = Particle size distribution by laser light diffraction (LLD); type: physicochemical
Source text: Values are given in micrometer, measurements done by laser light diffraction (LLD).

[2] = Behaviour of co-crystal in aqueous media; type: physicochemical

COc1ncc(-c2nc3c(n2C(C)C)[C@H](c2ccc(Cl)cc2)N(c2cc(Cl)cn(C)c2=O)C3=O)c(OC)n1 [HDM201-BBA, (6S)-5-(5-Chloro-1-methyl-2-oxo-1,2-dihydropyridin-3-yl)-6-(4-chlorophenyl)-2-(2,4-dimethoxypyrimidin-5-yl)-1-(propan-2-yl)-5,6-dihydropyrrolo[3,4-d]imidazol-4(1H)-one]
particle size range X90(LLD) found suitable for direct encapsulation [1]: 10-200 micrometer | stability of co-crystal in aqueous media [2]: can disproportionate into the free form in aqueous media
